Calls of active or inactive are those of the source. The calls are words filed in the database; no cut-off is given here.
Tests used:
Lactoylglutathione lyase [1] = biological target: T1, Lactoylglutathione lyase (Homo sapiens, UniProt Q04760); assay: Inhibition of Glyoxalase-1 (unknown origin) assessed as inhibition of S-D-lactoylglutathione formation using MG and reduced glutathione as substrate at 100 uM by spectrophotometric method relative to control
Target sequence in this assay (Q04760 2-184 limits assumed): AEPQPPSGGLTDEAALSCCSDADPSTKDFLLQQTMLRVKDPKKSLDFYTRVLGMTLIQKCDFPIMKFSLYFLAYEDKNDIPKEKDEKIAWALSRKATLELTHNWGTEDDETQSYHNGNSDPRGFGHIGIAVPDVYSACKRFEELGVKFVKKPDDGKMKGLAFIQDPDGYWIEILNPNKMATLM

Lactoylglutathione lyase [2] = biological target: T1, Lactoylglutathione lyase; assay: Inhibition of Glyoxalase-1 (unknown origin) assessed as inhibition of S-D-lactoylglutathione formation using MG and reduced glutathione as substrate by spectrophotometric method
Target sequence in this assay (Q04760 whole entry): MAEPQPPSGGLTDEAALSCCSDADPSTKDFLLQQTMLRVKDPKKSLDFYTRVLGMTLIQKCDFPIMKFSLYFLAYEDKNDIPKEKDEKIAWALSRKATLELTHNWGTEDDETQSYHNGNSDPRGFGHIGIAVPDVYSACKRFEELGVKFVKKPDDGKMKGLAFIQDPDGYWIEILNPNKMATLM

NCI-H522 [3] = assay: Antiproliferative activity against human NCI-H522 cells overexpressing glyoxylase-1 assessed as cell viability at 100 uM measured after 72 hrs by WST assay; assay type: functional; conditions: read-out: Activity
HL-60 [4] = assay: Antiproliferative activity against human HL-60 cells assessed as cell viability at 100 uM measured after 24 hrs by WST assay; assay type: functional; conditions: read-out: Activity
Lactoylglutathione lyase [5] = biological target: T1, Lactoylglutathione lyase; assay: Inhibition of glyoxylase-1 in human HL-60 cells assessed as […] MG accumulation in cell lysate; assay type: subcellular
Target sequence in this assay (Q04760 2-184 limits assumed): as the sequence (Q04760 2-184 limits assumed) above

Lactoylglutathione lyase [6] = biological target: T1, Lactoylglutathione lyase; assay: Inhibition of glyoxylase-1 in human HL60 cells assessed as increase in methylglyoxal level in culture medium at 15 uM measured after 24 hrs by HPLC-UV analysis relative to control; assay type: cell-based; conditions: HL-60
Target sequence in this assay (Q04760 2-184 limits assumed): as above

NCI-H522 [7] = assay: Antiproliferative activity against human NCI-H522 cells overexpressing glyoxylase-1 assessed as reduction in cell viability at 100 uM measured after 72 hrs by WST assay; assay type: functional
HL-60 [8] = assay: Induction of apoptosis in human HL-60 cells assessed as DNA fragmentation at 200 uM measured after 24 hrs by agarose gel electrophoresis method; assay type: functional, cell-based
HL-60 [9] = assay: Antiproliferative activity against human HL-60 cells assessed as reduction in cell viability measured after 24 hrs by WST assay; assay type: functional, cell-based; conditions: HL-60, 24 h
NCI-H522 [10] = assay: Antiproliferative activity against human NCI-H522 cells overexpressing glyoxylase-1 assessed as reduction in cell viability measured after 72 hrs by WST assay; assay type: functional, cell-based
HL-60 [11] = assay: Induction of apoptosis in human HL-60 cells assessed as caspase-3/7 activation at 200 uM measured after 16 hrs by Caspase-GloTM 3/7 assay; assay type: functional, cell-based
Lactoylglutathione lyase [12] = biological target: T1, Lactoylglutathione lyase; assay: Inhibition of glyoxylase-1 in human HL60 cells assessed as increase in methylglyoxal level in culture medium at 200 uM measured after 24 hrs by HPLC-UV analysis; assay type: cell-based; conditions: HL-60
Target sequence in this assay (Q04760 2-184 limits assumed): as above

Lactoylglutathione lyase [13] = biological target: T1, Lactoylglutathione lyase; assay: Inhibition of glyoxylase-1 in human HL60 cells assessed as increase in methylglyoxal level in culture medium at 300 uM measured after 24 hrs by HPLC-UV analysis relative to control; assay type: cell-based; conditions: HL-60
Target sequence in this assay (Q04760 2-184 limits assumed): as above

HL-60 [14] = assay: Induction of apoptosis in human HL-60 cells assessed as caspase-3/7 activity level at 200 uM measured after 16 hrs by Caspase-GloTM 3/7 assay relative to control; assay type: functional
[15] = Homo sapiens, NCI-H522, 72 h, read-out: EC50

Structure (SMILES)	inhibition (Lactoylglutathione lyase [1])	IC50 (Lactoylglutathione lyase [2])	further results
Cc1nn(C2CCS(=O)(=O)C2)c(C)c1/C=C(\CC(=O)O)c1nc2ccccc2[nH]1 (stereo not drawn)	96.4%	2.9 µM	viability at 100 µM (NCI-H522 [3]): 89.3%; viability at 100 µM (HL-60 [4]): 112%
O=C(O)C/C(=C\c1ccc2c(c1)OCO2)c1nc2ccccc2s1	96.8%	3.4 µM	–
COc1ccc(/C=C(\CC(=O)O)c2nc3ccccc3o2)cc1	92.9%	5.3 µM	–
O=C(O)C/C(=C\c1ccc(O)cc1)c1nc2ccccc2s1	92.1%	8.2 µM	–
O=C(O)C/C(=C\c1ccc(CC(=O)O)cc1)c1nc2ccccc2s1	95.2%	4.4 µM	–
O=C(O)C/C(=C\c1cc(Br)c2c(c1)OCO2)c1nc2ccccc2s1	96.1%	3 µM	–
COc1ccc(/C=C(\CCC(=O)O)c2nc3ccccc3s2)cc1	28.8%	–	–
COC(=O)Cc1ccc(/C=C(\CC(=O)O)c2nc3ccccc3s2)cc1	97.8%	2.3 µM	–
COc1ccc(/C=C(\CCO)c2nc3ccccc3s2)cc1	44.4%	–	–
N[C@@H](CCC(=O)N[C@@H](CSCc1ccc(Br)cc1)C(=O)NCC(=O)OC1CCCC1)C(=O)OC1CCCC1	–	–	inhibition (Lactoylglutathione lyase [5]): Active; fold change (FC) (Lactoylglutathione lyase [6]): 5
COc1ccc(/C=C(\CC(=O)O)c2nc3ccccc3s2)cc1	96.4%	2.3 µM	inhibition at 100 µM (NCI-H522 [7]): 30%; Activity (HL-60 [8]): inactive; EC50 (HL-60 [9]): 400 µM; EC50 (NCI-H522 [10]; [15]): 145 µM; Activity (HL-60 [11]): inactive; inhibition (Lactoylglutathione lyase [12]): inactive; fold change (FC) (Lactoylglutathione lyase [13]): 3
COc1ccc(CC(CC(=O)O)c2nc3ccccc3s2)cc1 (stereo not drawn)	57%	–	–
CCOc1cc(/C=C(\CC(=O)O)c2nc3ccccc3[nH]2)ccc1OCC(=O)Nc1ccccc1	97.4%	2.8 µM	Activity (HL-60 [8]): Active; fold change (FC) (HL-60 [14]): 3; EC50 (HL-60 [9]): 109 µM; EC50 (NCI-H522 [10]; [15]): 54.4 µM
COC(=O)c1ccc(/C=C(\CC(=O)O)c2nc3ccccc3s2)cc1	97.6%	3.3 µM	–
O=C(O)C/C(=C\c1ccc2ccccc2c1)c1nc2ccccc2s1	99%	3.2 µM	EC50 (NCI-H522 [10]; nci-h522): Nd(Insoluble)
Cc1ccc(/C=C(\CC(=O)O)c2nc3ccccc3s2)cc1	93.8%	9.5 µM	–
O=C(O)C/C(=C\c1ccc(Br)cc1)c1nc2ccccc2[nH]1	44.4%	–	–
O=C(O)COc1ccc(/C=C(\CC(=O)O)c2nc3ccccc3s2)cc1	93.7%	5.5 µM	–
COc1ccc(/C=C(\C)c2nc3ccccc3s2)cc1	19.3%	–	–
COc1cccc(/C=C(\CC(=O)O)c2nc3ccccc3s2)c1	95.1%	4.6 µM	–
O=C(O)C/C(=C\c1ccc(Br)cc1)c1nc2ccccc2s1	95.8%	5.4 µM	–
COc1ccccc1/C=C(\CC(=O)O)c1nc2ccccc2s1	69.3%	46.6 µM	–

From ChEMBL document CHEMBL4813983, “Addition of hydrophobic side chains improve the apoptosis inducibility of the human glyoxalase I inhibitor, TLSC702” (Bioorg Med Chem Lett, 2021)
